Source: patent publication US8859584B2, “TRPV1 antagonists” (AbbVie Inc., priority 2011, dated 2014)

Experiments:
human TRPV1 [1] = biological target: T1, human TRPV1 (Homo sapiens, UniProt Q8NER1); assay: Capsaicin Activation Assay (FLIPR intracellular Ca2+, recombinant HEK293 cells); assay type: cell-based; conditions: recombinant HEK293 cells expressing hTRPV1; 50 nM capsaicin; read-out: human TRPV1 capsaicin IC50
T1 construct: expressed in transfected cells

human TRPV1 [2] = biological target: T1, human TRPV1; assay: Acid Activation Assay (pH 5.0, FLIPR intracellular Ca2+, recombinant HEK293 cells); assay type: cell-based; conditions: percentage of maximal pH 5.0-induced response remaining; HEK293 hTRPV1; max concentration 37.5 μM
How it was run: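 HEK293 cells stably expressing recombinant hTRPV1 were loaded with calcium dye for 90-120 min at 25° C and pre-treated with compound for 3 min before a pH 5.0 (DPBS/MES) challenge. Peak FLIPR fluorescence over baseline is given as percentage of the maximal pH 5.0-induced response.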

T1 sequence (Q8NER1 whole entry): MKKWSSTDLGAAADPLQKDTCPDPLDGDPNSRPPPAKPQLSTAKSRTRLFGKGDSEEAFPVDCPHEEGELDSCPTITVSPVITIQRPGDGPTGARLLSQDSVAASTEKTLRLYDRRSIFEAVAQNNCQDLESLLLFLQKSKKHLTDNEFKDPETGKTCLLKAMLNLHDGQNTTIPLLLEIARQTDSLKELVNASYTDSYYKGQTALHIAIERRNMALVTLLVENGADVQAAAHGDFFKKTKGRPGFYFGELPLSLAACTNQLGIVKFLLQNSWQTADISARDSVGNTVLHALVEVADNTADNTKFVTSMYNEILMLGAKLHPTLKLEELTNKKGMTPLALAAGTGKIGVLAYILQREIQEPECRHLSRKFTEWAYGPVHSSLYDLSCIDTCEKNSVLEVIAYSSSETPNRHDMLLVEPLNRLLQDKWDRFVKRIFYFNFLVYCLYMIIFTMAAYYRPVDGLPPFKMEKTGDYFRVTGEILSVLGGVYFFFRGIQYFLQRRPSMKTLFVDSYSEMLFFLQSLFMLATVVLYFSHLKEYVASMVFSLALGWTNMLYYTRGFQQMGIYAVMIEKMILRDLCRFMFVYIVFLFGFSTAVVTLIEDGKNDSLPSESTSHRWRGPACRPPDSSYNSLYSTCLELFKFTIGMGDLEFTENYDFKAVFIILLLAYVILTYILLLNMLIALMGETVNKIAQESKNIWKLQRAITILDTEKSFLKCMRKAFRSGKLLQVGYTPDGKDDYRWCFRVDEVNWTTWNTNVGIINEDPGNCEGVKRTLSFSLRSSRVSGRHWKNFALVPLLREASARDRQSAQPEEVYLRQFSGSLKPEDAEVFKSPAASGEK

Compound | IC50 (human TRPV1 [1]) [nM] | human TRPV1 H+ (max % remain) (human TRPV1 [2]) [%]
O=C(Nc1ccc(F)c2c1C[C@H](O)C2)N[C@@H]1CC(CF)(CF)Oc2c1ccc(Cl)c2F [Example 144, 1-[(4R)-7-chloro-8-fluoro-2,2-bis(fluoromethyl)-3,4-dihydro-2H-chromen-4-yl]-3-[(2S)-7-fluoro-2-hydroxy-2,3-dihydro-1H-inden-4-yl]urea] | 400 | 2
CC1(C)C[C@@H](NC(=O)Nc2cccc3c2C[C@H](O)C3)c2ccc(OC(F)(F)F)cc2O1 [Example 30, 1-[(4R)-2,2-dimethyl-7-(trifluoromethoxy)-3,4-dihydro-2H-chromen-4-yl]-3-[(2R)-2-hydroxy-2,3-dihydro-1H-inden-4-yl]urea] | 42 | 39
O=C(Nc1cccc2c1CC(O)C2)NC1CC(c2ccc(C(F)(F)F)cc2)Oc2ccccc21 (stereo not shown) [Example 121, 1-(2-hydroxy-2,3-dihydro-1H-inden-4-yl)-3-{2-[4-(trifluoromethyl)phenyl]-3,4-dihydro-2H-chromen-4-yl}urea] | 680 | 57
CC1(C)C[C@@H](NC(=O)Nc2ccc(F)c3c2C[C@H](O)C3)c2ccc(F)cc2O1 [Example 138, 1-[(4R)-7-fluoro-2,2-dimethyl-3,4-dihydro-2H-chromen-4-yl]-3-[(2S)-7-fluoro-2-hydroxy-2,3-dihydro-1H-inden-4-yl]urea] | 820 | 4
CC1(C)C[C@@H](NC(=O)Nc2cccc3c2C[C@@H](O)C3)c2ccc(Cl)c(F)c2O1 [Example 35, 1-[(4R)-7-chloro-8-fluoro-2,2-dimethyl-3,4-dihydro-2H-chromen-4-yl]-3-[(2S)-2-hydroxy-2,3-dihydro-1H-inden-4-yl]urea] | 11 | 14
O=C(Nc1cccc2c1CC(O)C2)NC1c2ccccc2OCC1c1ccccc1 (stereo not shown) [Example 108, 1-(2-hydroxy-2,3-dihydro-1H-inden-4-yl)-3-(3-phenyl-3,4-dihydro-2H-chromen-4-yl)urea] | 8000 | 97
COc1ccc(C2COc3ccccc3C2NC(=O)Nc2cccc3c2CC(O)C3)cc1 (stereo not shown) [Example 116, 1-(2-hydroxy-2,3-dihydro-1H-inden-4-yl)-3-[3-(4-methoxyphenyl)-3,4-dihydro-2H-chromen-4-yl]urea] | 4100 | 94
CC1(C)C[C@@H](NC(=O)Nc2ccc(F)c3c2C[C@H](O)C3)c2ccc(F)c(Cl)c2O1 [Example 147, 1-[(4R)-8-chloro-7-fluoro-2,2-dimethyl-3,4-dihydro-2H-chromen-4-yl]-3-[(2S)-7-fluoro-2-hydroxy-2,3-dihydro-1H-inden-4-yl]urea] | 440 | 2
O=C(Nc1cccc2c1C[C@@H](O)C2)N[C@H]1CCOc2cc(OC(F)(F)F)ccc21 [Example 94, 1-[(2S)-2-hydroxy-2,3-dihydro-1H-inden-4-yl]-3-[(4S)-7-(trifluoromethoxy)-3,4-dihydro-2H-chromen-4-yl]urea] | 5900 | 47
O=C(Nc1cccc2c1C[C@H](O)C2)N[C@@H]1CC(CF)(CF)Oc2cc(OC(F)(F)F)ccc21 [Example 31, 1-[(4R)-2,2-bis(fluoromethyl)-7-(trifluoromethoxy)-3,4-dihydro-2H-chromen-4-yl]-3-[(2R)-2-hydroxy-2,3-dihydro-1H-inden-4-yl]urea] | 41 | 30
O=C(Nc1ccc(F)c2c1C[C@@H](O)C2)N[C@@H]1CC(CF)(CF)Oc2ccccc21 [Example 169, 1-[(4R)-2,2-bis(fluoromethyl)-3,4-dihydro-2H-chromen-4-yl]-3-[(2R)-7-fluoro-2-hydroxy-2,3-dihydro-1H-inden-4-yl]urea] | 3400 | 57
O=C(Nc1ccc(F)c2c1C[C@H](O)C2)N[C@@H]1CCOc2cc(OC(F)(F)F)ccc21 [Example 150, 1-[(2S)-7-fluoro-2-hydroxy-2,3-dihydro-1H-inden-4-yl]-3-[(4R)-7-(trifluoromethoxy)-3,4-dihydro-2H-chromen-4-yl]urea] | 1600 | 3
CC1(C)C[C@@H](NC(=O)Nc2cccc3c2C[C@H](O)C3)c2cccc(OC(F)(F)F)c2O1 [Example 19, 1-[(4R)-2,2-dimethyl-8-(trifluoromethoxy)-3,4-dihydro-2H-chromen-4-yl]-3-[(2R)-2-hydroxy-2,3-dihydro-1H-inden-4-yl]urea] | 14 | 71
COc1ccc(CC2COc3ccccc3C2NC(=O)Nc2cccc3c2CC(O)C3)cc1OC (stereo not shown) [Example 109, 1-[3-(3,4-dimethoxybenzyl)-3,4-dihydro-2H-chromen-4-yl]-3-(2-hydroxy-2,3-dihydro-1H-inden-4-yl)urea] | 3100 | 89
O=C(Nc1cccc2c1C[C@@H](O)C2)N[C@@H]1CC(CF)(CF)Oc2cc(Cl)ccc21 [Example 24, 1-[(4R)-7-chloro-2,2-bis(fluoromethyl)-3,4-dihydro-2H-chromen-4-yl]-3-[(2S)-2-hydroxy-2,3-dihydro-1H-inden-4-yl]urea] | 27 | 6
CC(C)(C)c1ccc(Nc2ncnc3cc(-c4ncccc4C(F)(F)F)ccc23)cc1 [B, reference compound] | 55 | 1
Cc1cccnc1N1CC=C(C(=O)Nc2ccc(S(=O)(=O)C(F)(F)F)cc2)CC1 [E, reference compound] | 100 | 2
CC1(C)C[C@@H](NC(=O)Nc2ccc(F)c3c2C[C@H](O)C3)c2cccc(F)c2O1 [Example 136, 1-[(4R)-8-fluoro-2,2-dimethyl-3,4-dihydro-2H-chromen-4-yl]-3-[(2S)-7-fluoro-2-hydroxy-2,3-dihydro-1H-inden-4-yl]urea] | 2800 | 5
CC1(C)C[C@H](NC(=O)Nc2cccc3c2C[C@@H](O)C3)c2cc(F)ccc2O1 [Example 103, 1-[(4S)-6-fluoro-2,2-dimethyl-3,4-dihydro-2H-chromen-4-yl]-3-[(2S)-2-hydroxy-2,3-dihydro-1H-inden-4-yl]urea] | 28000 | 99

Results, then the molecule that gave them:

IC50 (human TRPV1 [1]) [nM] | human TRPV1 H+ (max % remain) (human TRPV1 [2]) [%] | Compound
400 | 91 | O=C(Nc1cccc2c1C[C@H](O)C2)N[C@@H]1CC(CF)(CF)Oc2ccccc21 [Example 69, 1-[(4R)-2,2-bis(fluoromethyl)-3,4-dihydro-2H-chromen-4-yl]-3-[(2R)-2-hydroxy-2,3-dihydro-1H-inden-4-yl]urea]
3900 | 47 | O=C(Nc1ccc(F)c2c1C[C@@H](O)C2)N[C@@H]1CC(CF)(CF)Oc2ccc(F)cc21 [Example 161, 1-[(4R)-6-fluoro-2,2-bis(fluoromethyl)-3,4-dihydro-2H-chromen-4-yl]-3-[(2R)-7-fluoro-2-hydroxy-2,3-dihydro-1H-inden-4-yl]urea]
59 | 11 | O=C(Nc1cccc2c1C[C@@H](O)C2)N[C@@H]1CC(CF)(CF)Oc2c1ccc(Cl)c2F [Example 81, 1-[(4R)-7-chloro-8-fluoro-2,2-bis(fluoromethyl)-3,4-dihydro-2H-chromen-4-yl]-3-[(2S)-2-hydroxy-2,3-dihydro-1H-inden-4-yl]urea]
32 | 1 | O=C(Nc1cccc2c1C[C@@H](O)C2)N[C@@H]1CC(CF)(CF)Oc2cc(OC(F)(F)F)ccc21 [Example 76, 1-[(4R)-2,2-bis(fluoromethyl)-7-(trifluoromethoxy)-3,4-dihydro-2H-chromen-4-yl]-3-[(2S)-2-hydroxy-2,3-dihydro-1H-inden-4-yl]urea]
1400 | 88 | C[C@@]1(C(F)F)C[C@@H](NC(=O)Nc2cccc3c2C[C@H](O)C3)c2ccccc2O1 [Example 126, 1-[(2S,4R)-2-(difluoromethyl)-2-methyl-3,4-dihydro-2H-chromen-4-yl]-3-[(2R)-2-hydroxy-2,3-dihydro-1H-inden-4-yl]urea]
2200 | 55 | COc1ccc2c(c1)OCCC2NC(=O)Nc1cccc2c1CC(O)C2 (stereo not shown) [Example 107, 1-(2-hydroxy-2,3-dihydro-1H-inden-4-yl)-3-(7-methoxy-3,4-dihydro-2H-chromen-4-yl)urea]
42 | 19 | O=C(Nc1ccc(F)c2c1CC(O)C2)NC1CCc2cc(C(F)(F)F)ccc21 (stereo not shown) [Example 155, 1-(7-fluoro-2-hydroxy-2,3-dihydro-1H-inden-4-yl)-3-[5-(trifluoromethyl)-2,3-dihydro-1H-inden-1-yl]urea]
980 | 77 | O=C(Nc1cccc2c1CC(O)C2)NC1c2ccccc2OCC1Cc1ccc(Cl)c(Cl)c1 (stereo not shown) [Example 112, 1-[3-(3,4-dichlorobenzyl)-3,4-dihydro-2H-chromen-4-yl]-3-(2-hydroxy-2,3-dihydro-1H-inden-4-yl)urea]
290 | 58 | O=C(NCC1COc2ccc(F)cc2C1)Nc1cccc2c1C[C@H](O)C2 (stereo partly drawn) [Example 28, 1-[(6-fluoro-3,4-dihydro-2H-chromen-3-yl)methyl]-3-[(2R)-2-hydroxy-2,3-dihydro-1H-inden-4-yl]urea]
150 | 39 | CC1(C)C[C@@H](NC(=O)Nc2cccc3c2C[C@H](O)C3)c2ccc(C(F)(F)F)nc2O1 [Example 105, 1-[(4R)-2,2-dimethyl-7-(trifluoromethyl)-3,4-dihydro-2H-pyrano[2,3-b]pyridin-4-yl]-3-[(2R)-2-hydroxy-2,3-dihydro-1H-inden-4-yl]urea]
